Read-outs that look alike come from different tables or passages of the source.

Assay [1] addresses T1, DosS (Mycobacterium tuberculosis, UniProt P9WGK3). It counts as binding. To be noted: for binding to DosS heme iron (heme-nitrosyl / heme-carbonyl formation): ferrous DosS (DTH treated), UV-visible and EPR spectroscopy.
Assay [2] has as its target T2, DosT (Mycobacterium tuberculosis, UniProt P9WGK1). It counts as biochemical. Here is the method: (§1) In-vitro phosphorylation assays were performed according to previously described methods (Roberts et al., J. Biol. Chem., 2004, 279:22) and analyzed on 4-20% Tris-HCl gradient PAGE gels, dried and exposed to X-ray film overnight at −80° C. Formation of a heme-nitrosyl/carbonyl complex was first confirmed by absorption spectroscopy before analyzing samples for autokinase activity. As an additional control, air exposed samples were also treated with proline NONOate. The effect of CO on autokinase activity was measured similarly as described for NO, except that protein samples were flushed with 100% CO for 30 seconds. All autokinase reactions were performed inside the glove box.

Assay [3] has as its target T1, DosS. It counts as biochemical. The procedure:
as §1

Assay [4] concerns the target T2, DosT. It is filed as binding. To be noted: for binding to DosT heme iron (nitrosylated / carbonylated heme formation): deoxy DosT (DTH treated), UV-visible and EPR spectroscopy; for binding to DosT heme iron in the presence of O2: oxy DosT (Fe2+-O2).
Setting [5] is: DTH reduced DosS (Fe2+) exposed to ligand, relative to met DosS.

T1 sequence (P9WGK3 whole entry): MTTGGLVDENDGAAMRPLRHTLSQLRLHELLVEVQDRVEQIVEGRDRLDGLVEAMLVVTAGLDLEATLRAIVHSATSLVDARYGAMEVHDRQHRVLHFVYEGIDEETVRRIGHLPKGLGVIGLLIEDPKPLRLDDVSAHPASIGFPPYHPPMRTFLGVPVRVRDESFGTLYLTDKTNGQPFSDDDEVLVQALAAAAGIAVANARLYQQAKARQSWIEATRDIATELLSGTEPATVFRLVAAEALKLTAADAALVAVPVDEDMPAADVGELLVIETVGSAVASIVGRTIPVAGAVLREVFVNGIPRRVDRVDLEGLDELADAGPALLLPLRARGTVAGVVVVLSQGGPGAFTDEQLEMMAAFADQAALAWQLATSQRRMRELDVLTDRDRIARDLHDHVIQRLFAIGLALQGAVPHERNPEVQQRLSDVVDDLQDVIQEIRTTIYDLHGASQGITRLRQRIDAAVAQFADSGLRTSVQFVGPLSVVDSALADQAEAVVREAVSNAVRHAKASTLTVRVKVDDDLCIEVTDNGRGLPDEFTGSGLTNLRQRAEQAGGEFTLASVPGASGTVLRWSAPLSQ
T2 sequence (P9WGK1 whole entry): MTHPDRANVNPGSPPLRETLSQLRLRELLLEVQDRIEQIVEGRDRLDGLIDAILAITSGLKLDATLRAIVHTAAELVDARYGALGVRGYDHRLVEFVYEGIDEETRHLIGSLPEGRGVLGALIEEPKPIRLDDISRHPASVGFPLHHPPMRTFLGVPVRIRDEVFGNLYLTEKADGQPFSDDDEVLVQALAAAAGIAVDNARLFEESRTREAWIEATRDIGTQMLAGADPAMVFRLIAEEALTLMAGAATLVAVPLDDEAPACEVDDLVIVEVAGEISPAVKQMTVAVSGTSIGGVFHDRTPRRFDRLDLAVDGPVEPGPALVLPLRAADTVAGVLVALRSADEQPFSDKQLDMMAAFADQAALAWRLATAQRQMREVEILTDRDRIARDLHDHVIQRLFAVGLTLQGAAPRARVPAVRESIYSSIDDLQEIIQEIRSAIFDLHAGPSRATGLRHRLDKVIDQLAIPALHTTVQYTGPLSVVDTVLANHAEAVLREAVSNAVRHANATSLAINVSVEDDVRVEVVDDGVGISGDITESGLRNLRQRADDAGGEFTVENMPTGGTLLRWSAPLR

Consider `[C-]#[O+]` [CO, carbon monoxide], for which the “binding to DosS heme iron (heme-nitrosyl / heme-carbonyl formation)” value on DosS [1] is “generated heme-nitrosyl and heme-carbonyl DosS species”. Moreover, the “rank of DosT autokinase activity” value on DosT [2] (deoxy DosT (DTH reduced) treated with ligand vs untreated) is “deoxy DosT showed the highest autokinase activity, followed by CO-DosT and finally oxy DosT”. In addition, the “effect on DosT autokinase activity” value on DosT [2] (oxy DosT treated with ligand on the bench) was “significantly enhanced autokinase activity compared to inactive oxy DosT”. The “effect on DosS autokinase activity” value is “significantly increased autokinase activity as compared to inactive met DosS” at DosS [3] (setting [5]) and “found not to generate any further autokinase activity” on DosS [3] (met DosS (Fe3+) exposed to ligand). The “binding to DosT heme iron (nitrosylated / carbonylated heme formation)” value at DosT [4] was “highly characteristic of the formation of nitrosylated and carbonylated heme species”. For the same compound, the “binding to DosT heme iron in the presence of O2” value (“binding … of O2” below) at DosT [4] was “highly indicative of a heme-carbonyl complex”.
For the compound `O=O` [O2, oxygen], on DosS [1], the “effect on DosS heme iron oxidation state” value is “rapidly oxidized by O2 to generate met DosS”. Further, the “effect on DosT autokinase activity” value on DosT [2] is on record as “inhibits autokinase activity”. On DosS [3], the “effect on DosS autokinase activity” value is “dramatically decreases its autokinase activity”. On DosT [4], the “state of DosT heme iron after air exposure” value is “air exposed DosT is in the oxygen bound (oxy) form”.
As for `O=C([O-])[C@@H]1CCCN1/[N+]([O-])=N/[O-].[Na+].[Na+]` [proline NONOate], on DosS [1] (air exposed (met, Fe3+) DosS), the “binding to DosS heme iron (nitrosyl-heme EPR signal)” value was “no EPR signal characteristic of a nitrosyl-heme species was generated”. Moreover, the “binding … of O2” value at DosT [4] is listed as “did not generate any detectable nitrosyl-heme species”.
For `[N]=O` [NO, nitric oxide], on DosS [1], the “binding to DosS heme iron (heme-nitrosyl / heme-carbonyl formation)” value was “binds DosS”. Besides, the “effect on DosT autokinase activity” value on DosT [2] (ligand bound to DosT, compared with deoxy or oxy DosT) was “significantly increased autokinase activity as compared to inactive oxy DosT”. For the same compound, the “effect on DosS autokinase activity” value on DosS [3] (setting [5]) is on record as “significantly increased autokinase activity to levels comparable to active ferrous DosS autokinase activity”. Further, on DosT [4], the “binding to DosT heme iron (nitrosylated / carbonylated heme formation)” value is listed as “binds deoxy DosT” and the “binding … of O2” value is given as “but not NO can effectively substitute O2 from oxy DosT”.

The record behind these values is patent publication US8795978B2, “Modulating latency and reactivation of Mycobacterium tuberculosis” (priority 2007, dated 2014).
